This note sets out measurements from patent publication US7662851B2, “Use of specific cyklolignans” (Axelar AB, priority 2001, dated 2010).

Molecules are shown by their SMILES. In brackets after ≈: the same amount, converted by molar mass. Like-named read-outs stand apart in the source and are kept apart here. Bounds are passed on as bounds.

Data set [1] relates to K562/Vcr30 chronic myeloid leukemia cells. In words: Leukemia cell viability, K562/Vcr30. In kind it is cell-based, human. To be noted: Homo sapiens; K562/Vcr30, 72 h; read-out: IC50 for cell viability. How it is done: (§1) The human chronic myeloid leukemia K562/S and K562/Vcr30 lines and the acute myeloid leukemia cell lines HL60/0 and HL60/Nov were obtained from ATCC. The K562/S and […] are wild type (non-resistant) cells, whereas K562/Vcr30 and HL60/Nov are cytostatic-resistant sublines. All leukemia cell lines were cultured in RPMI 1640 medium supplemented with 10% fetal bovine serum and with 2 mM L-glutamine, benzylpenicillin (100 U/ml) and streptomycin (100 μg/ml). The cells were grown in tissue culture flasks maintained at 95% air/5% CO2 atmosphere at 37° C. in a humidified incubator. For the experiments cells were cultured in 60-mm plastic dishes or 96-well plastic plates.
(§2) Cell proliferation kit II (Roche Inc.) is based on colorimetric change of the yellow tetrazolium salt XTT in orange formazan dye by the respiratory chain of viable cells (Roehm, N W, et al., J Immunol Methods 142:257-265, 1991). Cells seeded at a concentration of 5000/well in 100 μl medium in a 96-well plate were treated with different drugs in the given concentration. After 24 or 48 h the cells were incubated, according to the manufacturer's protocol, with XTT labelling mixture. After 4 h the formazan dye is quantified using a scanning multiwell spectrophotometer with a 495-nm filter. The absorbance is directly correlated with the number of viable cells. The standard absorbance curve was drawn by means of untreated cells seeded at a concentration of from 1000 to 10 000 cells/well with an increasing rate of 1000 cells/well. All standards and experiments were performed in triplicates.
(§3) Cells of said cell lines were seeded in 96-well plates (25 000 cells/well, medium volume per well was 100 μl), in […] medium supplemented with fetal calf serum. After 24 h picropodophyllin and the derivatives alpha-apopicropodophyllin and beta-apopicropodo-phyllin were added at different concentrations and the cells were incubated for 72 h. Cell viability was then assayed (see above). […] The results are based on 3 different experiments.
(§4) The leukemia cell lines K562/S, […], HL60/0 and HL60/Nov were cultured in 96-well plates as described in Experiment 7. After 24 h, the cells were treated for 72 h with different concentrations of the anti-cancer agent vincristine, with and without co-incubation with 0.05 μM picropodophyllin. […] Cell viability was then assayed. IC50 values for each inhibitor and cell line are shown below (Table 8). The results are based on 3 different experiments.

Data set [2] relates to SK-MEL-28 melanoma cell line. Nature of the data set: Cell viability (XTT), SK-MEL-28. In kind it is cell-based. How it is done: as §2
(§5) 12 different types of cell lines were seeded in 96-well plates (medium volume in a well was 100 μl), at a concentration of 10,000 cells/cm^2 in Minimal Essential Medium supplemented with fetal calf serum. When the cells had reached a concentration of 65,000 cells/cm^2, they were treated with different doses of podophyllotoxin and picropodophyllin for 48 h. Cell viability was then assayed (see above). […]
On the technique in general: Tetrazolium dyes change colour on reduction, which living cells bring about.

The subject of data set [3] is fibroblast growth factor receptor (FGFR). Nature of the data set: Tyrosine phosphorylation of FGFR in intact FM55 melanoma cells. To be noted: 0.05 μM, 1 h. It is filed as cell-based. How it is done: (§6) Cells were cultured to subconfluency in 6-cm plates, and then fresh medium containing 10% FBS and the desired compounds were added for 1 h. The cells were then lyzed and subjected to immunoprecipitation using specific antibodies. Immunoprecipitates were resolved by sodium dodecyl sulphate polyacrylamide gel electrophoresis (SDS-PAGE) and transferred to nitro-cellulose membranes and incubated with anti-phosphotyrosine antibody. Antibodies to actin (in cell extract) or IGF-1R beta subunit were used as loading controls. After detection the films were scanned for quantification.
(§7) FM55 melanoma cells were cultured in the same way as described in Experiment 1. When reaching a density of 65,000 cells/cm^2 in the dishes, they were treated for 1 h with 0 (control) and 0.05 μM of picropodophyllin and podophyllotoxin, respectively. The cells were then isolated and subjected to immunoprecipitation of the IGF-1R, fibroblast growth factor receptor (FGFR), platelet-derived growth factor receptor (PDGFR), epidermal growth factor receptor (EGFR), insulin receptor (IR) and insulin substrate-1 (IRS-1) using antibodies to respective molecules. IRS-1 is a substrate of IGF-1R, and therefore its phosphorylation is dependent on phosphorylated IGF-1R. Gelelectrophoresis, Western blotting and quantification of the different signals were performed as described above.

For data set [4], the system named is platelet-derived growth factor receptor (PDGFR). Nature of the data set: Tyrosine phosphorylation of PDGFR in intact FM55 melanoma cells. It is filed as cell-based. Conditions: 0.05 μM, 1 h. The procedure:
as §6, §7

In data set [5] the test system is ES-1 (Ewing's sarcoma cells) xenografts. Nature of the data set: Tumor growth of ES-1 xenografts in nude mice. In kind it is in vivo. To be noted: 28 mg/kg i.p. daily 4-6 days, then 4-6 days without treatment, FIG. 6. The procedure:
Control mice were treated with the solvent. 3-6 animals were treated in each group.
Because of the toxicity of podophyllotoxin and deoxypodophyllotoxin, we only used picropodophyllin to analyze effects on tumor xenografts. For this purpose ES-1 (Ewing's sarcoma cells) and BE (melanoma cells) xenografts were established in nude mice. When the ES-1 and BE tumors started growing subcutaneously and were measurable, mice were treated daily with intraperitoneal injections of picropodophyllin (28 mg/kg, which was required for giving an average concentration above 0.05 μM of picropodophyllin in the blood plasma) or 80% DMSO in saline as a carrier for 4-6 days, followed by 4-6 days without treatment. The mice were then killed and the tumors analyzed by an experienced pathologist.

The subject of data set [6] is leukemia cell lines (K562/S, K562/Vcr30, HL60/0 and HL60/Nov). In words: Leukemia cell viability, summary over the four cell lines. In kind it is cell-based, human. Conditions: 72 h. The procedure:
as §1
as §2, with “After 24 or 48 h the cells were incubated, according to the manufacturer's protocol, with XTT labelling mixture.” left out, “All standards and experiments were performed in triplicates.” left out

Data set [7] relates to P6 cells (fibroblasts with overexpressed IGF-1R). In words: Cell viability (XTT), P6. It is filed as cell-based, murine. To be noted: Mus musculus, Fibroblast, 48 h, read-out: EC50 for cell viability. The procedure: as §2, §5
In another data set the target is T1, insulin receptor (IR) (Homo sapiens, UniProt P06213).
T1 construct: endogenous in cells; host or cells: FM55 melanoma cells
In words: Tyrosine phosphorylation of IR in intact FM55 melanoma cells. In kind it is cell-based. Conditions: 0.05 μM, 1 h. The procedure: as §6, §7

In data set [8] the test system is HL60/Nov acute myeloid leukemia cells. Nature of the data set: Leukemia cell viability, HL60/Nov. To be noted: Homo sapiens, HL-60, 72 h, read-out: IC50 for cell viability. It is filed as cell-based, human. The procedure: as §1, §2, §3, §4
A further data set is described as follows: Water solubility. In kind it is physicochemical.

The EC50 is the concentration at which the effect is half-maximal. The solubility is how much of the substance goes into solution per volume.

T1 sequence (P06213 28-1382): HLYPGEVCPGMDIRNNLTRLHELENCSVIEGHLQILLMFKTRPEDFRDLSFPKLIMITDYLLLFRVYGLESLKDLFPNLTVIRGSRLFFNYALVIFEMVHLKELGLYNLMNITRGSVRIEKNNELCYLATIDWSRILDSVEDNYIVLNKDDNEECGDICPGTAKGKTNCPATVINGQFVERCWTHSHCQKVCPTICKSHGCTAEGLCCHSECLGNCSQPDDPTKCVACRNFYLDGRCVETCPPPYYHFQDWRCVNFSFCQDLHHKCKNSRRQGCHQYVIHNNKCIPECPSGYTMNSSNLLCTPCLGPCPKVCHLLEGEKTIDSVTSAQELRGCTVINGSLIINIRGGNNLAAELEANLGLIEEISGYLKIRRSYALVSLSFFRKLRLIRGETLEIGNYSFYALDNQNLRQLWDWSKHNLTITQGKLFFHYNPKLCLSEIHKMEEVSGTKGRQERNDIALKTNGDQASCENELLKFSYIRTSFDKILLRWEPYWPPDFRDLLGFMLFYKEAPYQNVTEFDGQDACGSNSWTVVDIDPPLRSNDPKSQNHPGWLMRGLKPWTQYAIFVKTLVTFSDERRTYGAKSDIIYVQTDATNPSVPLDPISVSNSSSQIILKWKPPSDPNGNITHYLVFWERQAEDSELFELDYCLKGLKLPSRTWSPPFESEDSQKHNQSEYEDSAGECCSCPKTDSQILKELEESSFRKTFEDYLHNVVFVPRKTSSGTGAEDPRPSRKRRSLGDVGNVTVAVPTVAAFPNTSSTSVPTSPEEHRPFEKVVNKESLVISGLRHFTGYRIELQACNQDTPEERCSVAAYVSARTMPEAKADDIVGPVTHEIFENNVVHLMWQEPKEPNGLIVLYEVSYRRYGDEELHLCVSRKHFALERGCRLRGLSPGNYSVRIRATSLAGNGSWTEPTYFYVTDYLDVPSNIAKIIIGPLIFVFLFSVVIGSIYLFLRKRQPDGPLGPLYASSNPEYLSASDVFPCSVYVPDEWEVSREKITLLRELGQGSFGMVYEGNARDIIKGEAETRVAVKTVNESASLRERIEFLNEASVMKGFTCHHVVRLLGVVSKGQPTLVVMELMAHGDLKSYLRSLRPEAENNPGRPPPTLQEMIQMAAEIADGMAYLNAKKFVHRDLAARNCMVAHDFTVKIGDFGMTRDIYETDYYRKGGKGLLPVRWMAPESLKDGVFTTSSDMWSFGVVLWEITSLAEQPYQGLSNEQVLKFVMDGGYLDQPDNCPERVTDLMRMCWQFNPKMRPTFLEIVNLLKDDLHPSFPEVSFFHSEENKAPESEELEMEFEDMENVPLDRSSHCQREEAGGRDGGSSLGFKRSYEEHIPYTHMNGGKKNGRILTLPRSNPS

Turning to `COc1cc([C@@H]2c3cc4c(cc3[C@H](O)[C@H]3COC(=O)[C@@H]23)OCO4)cc(OC)c1OC` [Picropodophyllin, picropodophyllin], the IC50 was more than 500 nM in [1]; 110 to 320 nM in [6] (Homo sapiens, read-out: Concentration needed to cause 50% cell death); 110 nM in data set [8]. For the same compound, the EC50 in [2] (Homo sapiens, SK-MEL-28, 48 h; read-out: EC50 for cell viability) was 30 nM; in data set [7] (P6 (fibroblasts with overexpressed IGF-1R)) it was 20 nM. In addition, in data set [3], the “Level of phosphorylation in intact cells, substrate FGFR” value was 100 % OD. In addition, in data set [4], the “Level of phosphorylation in intact cells, substrate PDGFR” value was found to be 104 % OD. In addition, the “Effect on tumor growth” value in data set [5] is on record as “significantly inhibited growth”. Moreover, the “Cell death in the tumor cells” value in data set [6] (leukemia cell lines, 0.05 μM) is “did not cause any detectable cell death”. Moreover, the “Level of phosphorylation in intact cells, substrate IR” value at insulin receptor (IR) amounted to 100 % OD.

In the case of `COc1cc([C@@H]2c3cc4c(cc3[C@H](O)[C@H]3COC(=O)[C@H]23)OCO4)cc(OC)c1OC` [Podophyllotoxin, podophyllotoxin], the EC50 was determined as 20 nM in data set [2] (Homo sapiens, SK-MEL-28, 48 h, read-out: EC50 for cell viability) and 30 nM in [7]. In addition, in data set [3], the “Level of phosphorylation in intact cells, substrate FGFR” value is given as 105 % OD. Moreover, the “Level of phosphorylation in intact cells, substrate PDGFR” value in [4] was found to be 100 % OD. The solubility in the data set “Water solubility” fell in the range of 100 to 200 µM (≈ 41.4 to 82.9 µg/mL). The “Level of phosphorylation in intact cells, substrate IR” value at insulin receptor (IR) was determined as 101 % OD.
